Legend:
[1] = tested on: Shank3 complete knockout mice; assay: Grooming Test in Shank3 complete knockout mice; assay type: in vivo, mouse; conditions: for acute effect on grooming: single IP dose, 20 min postdose, Day 1
Experimental: Animals. The breeding conditions and genotyping methods for Sapap3 and Shank3 complete knockout mice were the same as described in Welch et al. (Nature 2007, 448(7156):894-900) and in Wang et al. (Nat. Commun. 2016, 7:11459), respectively. Homozygous knockout mice and littermate wild type mice of both genders were used at 4 to 8 weeks of age.
Compound formulation. The test compounds were dissolved in a small volume of dimethyl sulfoxide (DMSO) and diluted in an aqueous solution of 2-hydroxypropyl-beta-cyclodextrin (HP-β-CD) and administered IP. Dosing volume was 10 mL/kg. At 20 minutes after dosing, the mice were subjected to the behavioral test as described below.
Testing room and apparatus. The test room was maintained under the same conditions as the colony rooms, except the mice were housed in conventional shoe-box cages with food, water, and nesting materials. Animals were housed in the test room 48-72 hours prior to testing, in order to permit the mice to fully acclimate to the test room and conventional housing cages before testing. Tests were conducted in white polyvinyl-fluoride hard-sided foam test arenas (20×20×12 cm). The arenas were indirectly illuminated by dimmable LED light bars placed level with the arena floor and 30 cm away from the external wall of the test arena. This permitted the internal area of the arena to be evenly illuminated at approximately 40 lux. The illumination levels where the mice were housed before testing were about 80-100 lux.
Testing procedure. Mice were carefully placed into the test arenas 20 minutes after compound administration. Animals were given free exploration of the arena for 10 minutes, after which they were gently sprayed with 4 quick pumps of a water mist (total water volume approximated 1.5-1.7 mL). Mice were then allowed an additional 10 minutes to self-groom and engage in other behaviors before being removed from the arena. All tests were videotaped using cameras mounted above the testing arena and were saved to digital media format using Noldus Media Player software (Noldus Information Technologies, Leesburg, Va.). The mice were only tested once in the acute studies and were repeatedly tested in the sustained effect studies.
Quantitation of grooming bouts. Analyses of the video recordings were conducted with TopScan behavioral recognition software (Cleversys Inc, Reston, Va.). Configurations were made which scored time spent in grooming. […] These settings permitted automated scoring of grooming by TopScan that corresponded well to manual-scoring of these behaviors by a trained blinded observer using Noldus Observer XT9 (Noldus Information Technologies), with an average corrected kappa of 0.925 (range 0.807-0.983).
Statistical analyses. Data are presented as means and standard error of the means (SEMs). Analyses were conducted using SPSS 23 (IBM SPSS Statistics, Chicago, Ill.). Time spent in grooming behavior (seconds) over the 10-minute pre- and post-spray time blocks were analyzed with repeated measures analyses of variance (RMANOVA). The pre- and post-spray times were used for the within subject effects and the genotype and compound treatment condition were used as the between subject effects. In sustained effect studies, days were also used for a within subject effect. […]
The amount of time mice spent grooming in a novel environment was quantified in Shank3 complete knockout mice (Wang et al. Nat. Commun. 2016, 7:11459) and their wild type littermates for 10 minutes. […]

[2] = molecular target: human NR1/NR2A (Homo sapiens (Human), UniProt Q05586+Q12879); assay: NR2A antagonist activity: calcium influx (Fluo-4) assay in HEK293 cells; assay type: cell-based; conditions: Table 1.1B; read-out: NR2A IC50
Experimental: Activation of the NR2A or NR2B subtype of NMDA receptor with glutamate as an agonist and glycine co-agonist on these cells results in calcium influx, which can be monitored with fluorescent indicator Fluo-4.
For experiments, the cells were seeded onto poly-D-lysine-coated 96-well black plates with clear bottom (Corning) at a density of ˜50,000 cells/well. After overnight culture, the growth medium was removed from the wells and the cells were incubated at 37° C. for 60 minutes in Hanks buffer containing 4 μM fluo-4-AM (Invitrogen) and 0.1% bovine serum albumin (BSA). After dye-loading, the cells were washed three times with Hanks buffer and incubated for 10 minutes at room temperature with various concentrations of test compounds prepared in Hanks buffer with 0.1% BSA. The cell plates were placed onto an FDSS Cell fluorescence reader (Hamamatsu). After 20 seconds of reading background fluorescence, agonist glutamate at final 100 µM and co-agonist glycine at final 50 μM were added to the cells to activate the receptor, and the resulting fluorescence changes were recorded and quantified. Based on the changes in fluorescence intensity, the pharmacological effect of test compounds was analyzed and the IC50 values derived from a non-linear least squares fitting of the concentration-dependent response to a standard logistic equation using Prism (Graphpad Software, Inc.): Amplitude=Max Amplitude/(1+(IC50/[antagonist])^n).

[3] = molecular target: native rat brain NR2B receptors (Rattus norvegicus (Rat), UniProt P35439+Q00960); assay: NR2B radioligand binding assay in rat brain using [3H] (E)-N1-(2-methoxybenzyl)-cinnamidine; conditions: rat brain NR2B receptors; mean of replicates; read-out: Arithmetic Mean Ki
[4] = single dose 3 mg/kg IP on Day 1

Chain of human NR1/NR2A (Q12879 23-1464, other chains not shown): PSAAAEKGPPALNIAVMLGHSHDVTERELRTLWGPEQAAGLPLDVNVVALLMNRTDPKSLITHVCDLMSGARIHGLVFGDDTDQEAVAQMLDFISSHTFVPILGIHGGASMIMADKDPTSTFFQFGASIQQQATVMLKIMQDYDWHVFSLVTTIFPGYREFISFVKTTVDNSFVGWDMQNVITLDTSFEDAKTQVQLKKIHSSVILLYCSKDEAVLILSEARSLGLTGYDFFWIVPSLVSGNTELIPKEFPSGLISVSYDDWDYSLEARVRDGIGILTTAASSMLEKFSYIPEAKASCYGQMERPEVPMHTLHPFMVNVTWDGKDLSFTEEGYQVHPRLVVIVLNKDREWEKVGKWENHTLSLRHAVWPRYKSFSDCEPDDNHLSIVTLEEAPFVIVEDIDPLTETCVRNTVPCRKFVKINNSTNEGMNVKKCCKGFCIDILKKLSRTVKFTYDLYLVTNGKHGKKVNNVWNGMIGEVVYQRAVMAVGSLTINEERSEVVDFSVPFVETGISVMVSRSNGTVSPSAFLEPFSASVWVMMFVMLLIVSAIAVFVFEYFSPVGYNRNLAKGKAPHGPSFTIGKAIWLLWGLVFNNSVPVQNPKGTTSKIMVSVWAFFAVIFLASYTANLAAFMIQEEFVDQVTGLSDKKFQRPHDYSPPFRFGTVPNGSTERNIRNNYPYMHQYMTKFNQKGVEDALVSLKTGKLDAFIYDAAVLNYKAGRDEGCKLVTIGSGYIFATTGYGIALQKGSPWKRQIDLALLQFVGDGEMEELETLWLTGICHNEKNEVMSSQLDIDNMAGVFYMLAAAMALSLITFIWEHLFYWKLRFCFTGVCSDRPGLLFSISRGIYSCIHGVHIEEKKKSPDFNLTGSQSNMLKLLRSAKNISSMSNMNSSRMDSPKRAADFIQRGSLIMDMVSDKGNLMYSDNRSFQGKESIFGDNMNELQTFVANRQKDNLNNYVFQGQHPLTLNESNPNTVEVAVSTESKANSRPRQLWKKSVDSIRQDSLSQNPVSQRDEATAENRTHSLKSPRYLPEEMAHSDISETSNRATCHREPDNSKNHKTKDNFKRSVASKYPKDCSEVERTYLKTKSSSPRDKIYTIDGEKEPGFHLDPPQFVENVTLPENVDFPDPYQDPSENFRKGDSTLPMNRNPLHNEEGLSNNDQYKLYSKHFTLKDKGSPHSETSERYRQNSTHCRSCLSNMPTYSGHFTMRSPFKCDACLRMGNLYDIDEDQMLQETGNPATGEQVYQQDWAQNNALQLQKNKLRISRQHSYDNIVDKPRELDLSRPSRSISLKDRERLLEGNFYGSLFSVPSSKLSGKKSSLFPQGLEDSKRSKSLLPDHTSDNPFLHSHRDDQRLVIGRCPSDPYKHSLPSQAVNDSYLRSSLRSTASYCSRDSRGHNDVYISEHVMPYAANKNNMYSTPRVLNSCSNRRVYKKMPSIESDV
Chain of native rat brain NR2B receptors (Q00960 27-1482, other chains not shown): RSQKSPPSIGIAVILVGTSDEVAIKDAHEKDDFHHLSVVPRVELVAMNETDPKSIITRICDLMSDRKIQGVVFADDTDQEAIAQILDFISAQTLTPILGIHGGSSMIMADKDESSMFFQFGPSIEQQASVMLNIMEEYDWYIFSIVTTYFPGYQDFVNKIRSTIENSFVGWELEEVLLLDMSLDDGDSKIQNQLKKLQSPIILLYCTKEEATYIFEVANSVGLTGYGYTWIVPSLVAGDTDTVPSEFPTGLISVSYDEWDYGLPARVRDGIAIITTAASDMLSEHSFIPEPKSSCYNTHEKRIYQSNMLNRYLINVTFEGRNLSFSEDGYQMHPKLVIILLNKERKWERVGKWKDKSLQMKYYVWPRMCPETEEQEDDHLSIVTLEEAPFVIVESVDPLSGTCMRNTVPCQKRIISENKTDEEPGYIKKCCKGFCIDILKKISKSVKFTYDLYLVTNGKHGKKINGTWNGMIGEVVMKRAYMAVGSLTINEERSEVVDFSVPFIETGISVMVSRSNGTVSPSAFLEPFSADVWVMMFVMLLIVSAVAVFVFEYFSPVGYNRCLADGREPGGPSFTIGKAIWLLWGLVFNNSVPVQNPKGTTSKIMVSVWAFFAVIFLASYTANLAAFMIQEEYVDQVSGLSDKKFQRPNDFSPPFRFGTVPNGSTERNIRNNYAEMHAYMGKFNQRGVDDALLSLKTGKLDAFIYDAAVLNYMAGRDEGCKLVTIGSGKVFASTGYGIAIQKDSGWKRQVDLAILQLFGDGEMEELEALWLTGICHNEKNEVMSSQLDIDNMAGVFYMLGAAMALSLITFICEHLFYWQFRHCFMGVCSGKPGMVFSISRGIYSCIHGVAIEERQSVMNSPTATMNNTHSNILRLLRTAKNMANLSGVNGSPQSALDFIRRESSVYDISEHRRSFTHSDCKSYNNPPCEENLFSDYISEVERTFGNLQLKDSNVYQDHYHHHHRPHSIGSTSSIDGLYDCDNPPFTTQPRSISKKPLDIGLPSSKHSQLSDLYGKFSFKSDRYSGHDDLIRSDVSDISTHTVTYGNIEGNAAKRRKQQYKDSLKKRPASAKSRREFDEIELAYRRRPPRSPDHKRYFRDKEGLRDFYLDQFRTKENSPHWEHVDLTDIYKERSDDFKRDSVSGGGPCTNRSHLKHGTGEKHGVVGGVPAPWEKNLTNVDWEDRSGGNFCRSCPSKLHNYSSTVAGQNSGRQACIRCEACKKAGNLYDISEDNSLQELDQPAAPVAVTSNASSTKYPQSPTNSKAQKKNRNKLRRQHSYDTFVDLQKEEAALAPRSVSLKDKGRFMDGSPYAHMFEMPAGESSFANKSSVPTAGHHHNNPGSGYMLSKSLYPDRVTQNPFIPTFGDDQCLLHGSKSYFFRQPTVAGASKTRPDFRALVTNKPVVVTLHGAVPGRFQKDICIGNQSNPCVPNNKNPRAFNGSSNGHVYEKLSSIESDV

SMILES	acute effect on grooming [1]	significantly reduced grooming through Day [1, 4] [days]	significantly reduced grooming through Day ([1]; single dose 1 mg/kg IP on Day 1) [days]	IC50 [2] [nM]	Ki [3] [nM]
Cc1ccc(COC(=O)N2CC[C@H](CNc3ncccn3)C(F)(F)C2)cc1 [E1-22.2^B′]	significantly reduced grooming	33	–	–	–
FC(F)c1ccc(C(F)(F)CN2CCC(Nc3ncnc4[nH]ccc34)CC2)cc1 [C-179^A′]	significantly reduced grooming	33	33	–	–
Cc1ccc(COC(=O)N2CC[C@H](CNc3nccn4cnnc34)C(F)(F)C2)cc1 [E1-1.2^B′]	–	–	–	> 10000	4.81

— patent publication US11752155B2, “Treatment of autism spectrum disorders, obsessive-compulsive disorder and anxiety disorders” (Rugen Holdings (Cayman) Limited, priority 2016, dated 2023)
